How the values were obtained:
[1] = system: rabbit infra-renal abdominal aorta, in-stent plaque; experiment: Morphological analysis of intima/media ratios 28 days after in vivo stent implantation; design: species or system New Zealand White rabbits; details: 28 days after stent implantation, mean ± SE
Description: Age-matched adult male New Zealand White rabbits weighing 3.8–4.2 kg were used in accordance to NIH and institutional guidelines (n=6 animals per group). Under general anesthesia, an arteriotomy at the femoral artery was performed and a 5 Fr introducing sheath was placed. Under fluoroscopic guidance, aseptically prepared channeled stents filled with blank or angiostatin microspheres were deployed in the infra-renal abdominal aorta. Stents were post-dilated at 8 atm with a 5 mm angioplasty balloon (Jupiter, Cordis, Miami, Fla.) to a final lumen size of 125% above the baseline with care taken to ensure that […] were present within the stent segment. Pre- and post-deployment digital subtraction angiograms were recorded for the blank procedural control and angiostatin treatment groups. The rabbits were fed a 0.25% cholesterol diet after the intervention. Early 7 day follow up (n=3 per group) or late 28 day follow-up (n=3 per group) animals underwent total-body perfusion-fixation as previously described with immediate excision of the aortic segment containing stent. The 7 day aortic specimens were excised longitudinally and stents were removed. The resulting aortic segments were divided into two equal subsegments. One subsegment of each underwent fixation in 10% neutral buffered formalin and embedded in paraffin for light microscopic and morphologic analysis. The remaining subsegment of each specimen was snap frozen for molecular assay. The 28 days aortic specimens were fixed in 10% neutral buffered formalin and were embedded in PolyBed (Polysciences, Warrington, Pa.) for light microscopic and morphologic analysis.
The seven day analysis consisted of thick (5 μm) cross sections of the aortic wall were obtained from the paraffin-embedded specimens (n=9 sections per group). An elastic von Gieson-Masson trichrome or Elastica van Gieson-Hematoxylin double stain was performed for light microscopic analysis. For the 28 day specimen analysis (n=3 animals per group), each plastic-embedded aorta with stents was cut into five pieces longitudinally equal lengths. These pieces were stained by modified Verhoff elastic staining. Five cross sectional images of the stained aorta were obtained (n=15 sections per group) from one side of plastic pieces. […] Using Image Pro Plus software (Media Cybernetics, Silver Spring, Md.), the cross-sectional area of the intima and the media were determined by blinded observers. The ratio of intima area to media area subsequently tabulated for each, with the results presented as Table 2. Mean, standard error, and significance were determined.

[2] = system: rabbit infra-renal abdominal aorta, in-stent plaque; experiment: Local plaque stability parameters: macrophage infiltrate and endothelial density (CD31), 7 days; assay type: in vivo, New Zealand White rabbits; details: 7 days after stent implantation, stents releasing angiostatin, mean ± SE
Description: Age-matched adult male New Zealand White rabbits weighing 3.8–4.2 kg were used in accordance to NIH and institutional guidelines (n=6 animals per group). Under general anesthesia, an arteriotomy at the femoral artery was performed and a 5 Fr introducing sheath was placed. Under fluoroscopic guidance, aseptically prepared channeled stents filled with blank or angiostatin microspheres were deployed in the infra-renal abdominal aorta. Stents were post-dilated at 8 atm with a 5 mm angioplasty balloon (Jupiter, Cordis, Miami, Fla.) to a final lumen size of 125% above the baseline with care taken to ensure that […] were present within the stent segment. Pre- and post-deployment digital subtraction angiograms were recorded for the blank procedural control and angiostatin treatment groups. The rabbits were fed a 0.25% cholesterol diet after the intervention. […]
Cross sections at the 7 day time point evaluated above were obtained (two per segment) from each vessel and incubated with a primary monoclonal antibody to rabbit macrophage (clone RAM-11, 1/800 dilution, DAKO, Carpinteria, Calif.). The number of positive cells per cross section was counted by a blinded observer. […] Mean and standard error were tabulated for each group with significance determined as before and p values as reported.

alpha-1-antitrypsin [AAT]
Intima to media ratio ([1]; stents releasing an elastase inhibitor (40 mg alpha-1-antitrypsin loaded), P = 0.0001 vs. controls): 1.322 ± 0.060

angiostatin
Macrophages (number of cross-sectional macrophages) [2]: 34.889 ± 3.948 P = 0.0011 cells per cross section | CD31 (number of plaque microvessels) ([2]; P < 0.05 vs. controls): 0.111 ± 0.111 | Intima to media ratio ([1]; stents releasing angiostatin (2.0 mg loaded in microspheres), P = 0.003 vs. controls): 1.610 ± 0.050

FGF: acidic FGF (Calbiochem) with endotoxin-free heparin as a stabilizer
Intima to media ratio ([1]; stents releasing acidic FGF (200 ng with 1280 units heparin as stabilizer), P = 0.004 vs. controls): 1.634 ± 0.051

TGFβ1: transforming growth factor β1 (Oncogene Research)
Intima to media ratio ([1]; stents releasing TGFβ1 (2.0 μg loaded), P = 0.004 vs. controls): 1.803 ± 0.053

B1: Fas ligand: pro-apoptotic factor Fas ligand (Oncogene Research) (protein, UniProt P48023 130-281, looked up)
Tumor necrosis factor ligand …: QIGHPSPPPEKKELRKVAHLTGKSNSRSMPLEWEDTYGIVLLSGVKYKKGGLVINETGLYFVYSKVYFRGQSCNNLPLSHKVYMRNSKYPQDLVMMEGKMMSYCTTGQMWARSSYLGAVFNLTSADHLYVNVSELSLVNFEESQTFFGLYKL
Intima to media ratio ([1]; stents releasing Fas Ligand (10 μg loaded), P < 0.05 vs. controls): 1.356 ± 0.053

Source: patent publication US7056339B2, “Drug delivery platform” (The Board of Trustees of the Leland Stanford Junior …, priority 2001, dated 2006)
